Values after ≈ are worked out from the molar mass of the structure shown.
Assays:
Madurella mycetomatis [1] = assay: Antifungal activity against Madurella mycetomatis MM55 by XTT assay; assay type: functional, organism-based
[2] = Cytotoxicity against mouse NIH3T3 cells incubated for 5 days by MTT assay; assay type: toxicity, cell-based
Madurella mycetomatis [3] = assay: Antifungal activity against Madurella mycetomatis CBS247.48 by XTT assay; assay type: functional
Madurella mycetomatis [4] = assay: Antifungal activity against Madurella mycetomatis P1 by XTT assay; assay type: functional
Madurella mycetomatis [5] = assay: Antifungal activity against Madurella mycetomatis SO1 by XTT assay; assay type: functional
Madurella mycetomatis [6] = assay: Antifungal activity against Madurella mycetomatis I3 by XTT assay; assay type: functional
Madurella mycetomatis [7] = assay: Antifungal activity against Madurella mycetomatis Peru72012 by XTT assay; assay type: functional
Madurella mycetomatis [8] = assay: Antifungal activity against Madurella mycetomatis AL1 by XTT assay; assay type: functional
[9] = Selectivity index, ratio of IC50 for mouse NIH3T3 cells to IC50 for Madurella mycetomatis MM55; assay type: toxicity; details: read-out: Ratio IC50
Madurella mycetomatis [10] = assay: Antifungal activity against Madurella mycetomatis MM50 by XTT assay; assay type: functional
Madurella mycetomatis [11] = assay: Antifungal activity against Madurella mycetomatis I1 by XTT assay; assay type: functional
Madurella mycetomatis [12] = assay: Antifungal activity against Madurella mycetomatis I11 by XTT assay; assay type: functional

COc1ccccc1-c1cn2nc(N3CCN(C)CC3)cc(-c3ccsc3)c2n1
IC50 (Madurella mycetomatis [1]; Madurella mycetomatis, MM55): 5.8 µM

CN1CCN(c2cc(-c3cccc4[nH]ccc34)c3nc(-c4ccc(F)cc4)cn3n2)CC1 [listing 1 of 2 here]
IC50 (Madurella mycetomatis [1]): 10.6 µM

CN1CCN(c2cc(-c3ccc4cc[nH]c4c3)c3nc(-c4ccc(F)cc4)cn3n2)CC1
IC50 (Madurella mycetomatis [1]; Madurella mycetomatis, MM55): 7.1 µM

OCCN1CCN(c2cc(-c3ccsc3)c3nc(-c4ccccc4F)cn3n2)CC1
IC50 at 5 days [2]: 10.5 µM
MIC (Madurella mycetomatis [3]): 8 µM (≈ 3.39 µg/mL)
MIC (Madurella mycetomatis [4]): 8 µM (≈ 3.39 µg/mL)
MIC (Madurella mycetomatis [5]): 8 µM (≈ 3.39 µg/mL)
MIC (Madurella mycetomatis [6]): 8 µM (≈ 3.39 µg/mL)
IC50 (Madurella mycetomatis [1]; Madurella mycetomatis, MM55): 1.3 µM
MIC (Madurella mycetomatis [1]; Madurella mycetomatis, MM55): 8 µM (≈ 3.39 µg/mL)
MIC (Madurella mycetomatis [7]): 8 µM (≈ 3.39 µg/mL)
MIC (Madurella mycetomatis [8]): 8 µM (≈ 3.39 µg/mL)
selectivity ratio [9]: 4
MIC (Madurella mycetomatis [10]): 4 µM (≈ 1.69 µg/mL)
MIC (Madurella mycetomatis [11]): 8 µM (≈ 3.39 µg/mL)
MIC (Madurella mycetomatis [12]): 4 µM (≈ 1.69 µg/mL)

CN1CCN(c2cc(-c3ccc4[nH]ccc4c3)c3nc(-c4ccc(F)cc4)cn3n2)CC1
IC50 at 5 days [2]: 9 µM
MIC (Madurella mycetomatis [3]): 4 µM (≈ 1.71 µg/mL)
MIC (Madurella mycetomatis [4]): 8 µM (≈ 3.41 µg/mL)
MIC (Madurella mycetomatis [5]): 8 µM (≈ 3.41 µg/mL)
MIC (Madurella mycetomatis [6]): 8 µM (≈ 3.41 µg/mL)
IC50 (Madurella mycetomatis [1]; Madurella mycetomatis, MM55): 3.4 µM
MIC (Madurella mycetomatis [1]; Madurella mycetomatis, MM55): 16 µM (≈ 6.82 µg/mL)
MIC (Madurella mycetomatis [7]): 4 µM (≈ 1.71 µg/mL)
MIC (Madurella mycetomatis [8]): 8 µM (≈ 3.41 µg/mL)
selectivity ratio [9]: 2.6
MIC (Madurella mycetomatis [10]): 4 µM (≈ 1.71 µg/mL)
MIC (Madurella mycetomatis [11]): 4 µM (≈ 1.71 µg/mL)
MIC (Madurella mycetomatis [12]): 4 µM (≈ 1.71 µg/mL)

CN1CCN(c2cc(-c3cccc4[nH]ccc34)c3nc(-c4ccc(F)cc4)cn3n2)CC1 [listing 2 of 2 here]
IC50 at 5 days [2]: 12.9 µM
MIC (Madurella mycetomatis [3]): 8 µM (≈ 3.41 µg/mL)
MIC (Madurella mycetomatis [4]): 8 µM (≈ 3.41 µg/mL)
MIC (Madurella mycetomatis [5]): 16 µM (≈ 6.82 µg/mL)
MIC (Madurella mycetomatis [6]): 8 µM (≈ 3.41 µg/mL)
IC50 (Madurella mycetomatis [1]): 1.7 µM
MIC (Madurella mycetomatis [1]; Madurella mycetomatis, MM55): 8 µM (≈ 3.41 µg/mL)
MIC (Madurella mycetomatis [7]): 8 µM (≈ 3.41 µg/mL)
MIC (Madurella mycetomatis [8]): 8 µM (≈ 3.41 µg/mL)
selectivity ratio [9]: 7.5
MIC (Madurella mycetomatis [10]): 8 µM (≈ 3.41 µg/mL)
MIC (Madurella mycetomatis [11]): 8 µM (≈ 3.41 µg/mL)
MIC (Madurella mycetomatis [12]): 8 µM (≈ 3.41 µg/mL)

CN1CCN(c2cc(-c3cccc4[nH]ccc34)c3nc(-c4ccccc4)cn3n2)CC1 [listing 1 of 2 here]
IC50 at 5 days [2]: 9.9 µM
MIC (Madurella mycetomatis [3]): 16 µM (≈ 6.54 µg/mL)
MIC (Madurella mycetomatis [4]): 8 µM (≈ 3.27 µg/mL)
MIC (Madurella mycetomatis [5]): 16 µM (≈ 6.54 µg/mL)
MIC (Madurella mycetomatis [6]): 16 µM (≈ 6.54 µg/mL)
IC50 (Madurella mycetomatis [1]): 4.8 µM
MIC (Madurella mycetomatis [1]; Madurella mycetomatis, MM55): 8 µM (≈ 3.27 µg/mL)
MIC (Madurella mycetomatis [7]): 8 µM (≈ 3.27 µg/mL)
MIC (Madurella mycetomatis [8]): 16 µM (≈ 6.54 µg/mL)
selectivity ratio [9]: 2.8
MIC (Madurella mycetomatis [10]): 16 µM (≈ 6.54 µg/mL)
MIC (Madurella mycetomatis [11]): 8 µM (≈ 3.27 µg/mL)
MIC (Madurella mycetomatis [12]): > 16 µM

CN1CCN(c2cc(-c3cccc4[nH]ccc34)c3nc(-c4cccc(F)c4)cn3n2)CC1
IC50 at 5 days [2]: 10.1 µM
MIC (Madurella mycetomatis [3]): 8 µM (≈ 3.41 µg/mL)
MIC (Madurella mycetomatis [4]): 8 µM (≈ 3.41 µg/mL)
MIC (Madurella mycetomatis [5]): 16 µM (≈ 6.82 µg/mL)
MIC (Madurella mycetomatis [6]): 8 µM (≈ 3.41 µg/mL)
IC50 (Madurella mycetomatis [1]; Madurella mycetomatis, MM55): 1.8 µM
MIC (Madurella mycetomatis [1]; Madurella mycetomatis, MM55): 8 µM (≈ 3.41 µg/mL)
MIC (Madurella mycetomatis [7]): 16 µM (≈ 6.82 µg/mL)
MIC (Madurella mycetomatis [8]): 8 µM (≈ 3.41 µg/mL)
selectivity ratio [9]: 4.8
MIC (Madurella mycetomatis [10]): 8 µM (≈ 3.41 µg/mL)
MIC (Madurella mycetomatis [11]): 16 µM (≈ 6.82 µg/mL)
MIC (Madurella mycetomatis [12]): 8 µM (≈ 3.41 µg/mL)

CN1CCN(c2cc(-c3cnc(N4CCN(C)CC4)nc3)c3nc(-c4ccccc4)cn3n2)CC1
IC50 at 5 days [2]: 14.3 µM
MIC (Madurella mycetomatis [3]): 8 µM (≈ 3.76 µg/mL)
MIC (Madurella mycetomatis [4]): 8 µM (≈ 3.76 µg/mL)
MIC (Madurella mycetomatis [5]): 16 µM (≈ 7.51 µg/mL)
MIC (Madurella mycetomatis [6]): 8 µM (≈ 3.76 µg/mL)
IC50 (Madurella mycetomatis [1]; Madurella mycetomatis, MM55): 2 µM
MIC (Madurella mycetomatis [1]; Madurella mycetomatis, MM55): 2 µM (≈ 0.939 µg/mL)
MIC (Madurella mycetomatis [7]): 8 µM (≈ 3.76 µg/mL)
MIC (Madurella mycetomatis [8]): 8 µM (≈ 3.76 µg/mL)
selectivity ratio [9]: 16
MIC (Madurella mycetomatis [10]): 8 µM (≈ 3.76 µg/mL)
MIC (Madurella mycetomatis [11]): 8 µM (≈ 3.76 µg/mL)
MIC (Madurella mycetomatis [12]): 8 µM (≈ 3.76 µg/mL)

CN1CCN(c2cc(-c3cnn(C)c3)c3nc(-c4ccc(F)cc4)cn3n2)CC1 [listing 1 of 2 here]
IC50 (Madurella mycetomatis [1]): 9.5 µM

CN1CCN(c2cc(-c3cnc(N4CCN(C)CC4)nc3)c3nc(-c4cccc(F)c4)cn3n2)CC1
IC50 at 5 days [2]: 10.5 µM
MIC (Madurella mycetomatis [3]): 2 µM (≈ 0.975 µg/mL)
MIC (Madurella mycetomatis [4]): 4 µM (≈ 1.95 µg/mL)
MIC (Madurella mycetomatis [5]): 4 µM (≈ 1.95 µg/mL)
MIC (Madurella mycetomatis [6]): 4 µM (≈ 1.95 µg/mL)
IC50 (Madurella mycetomatis [1]; Madurella mycetomatis, MM55): 4.7 µM
MIC (Madurella mycetomatis [1]; Madurella mycetomatis, MM55): 8 µM (≈ 3.9 µg/mL)
MIC (Madurella mycetomatis [7]): 4 µM (≈ 1.95 µg/mL)
MIC (Madurella mycetomatis [8]): 4 µM (≈ 1.95 µg/mL)
selectivity ratio [9]: 5.5
MIC (Madurella mycetomatis [10]): 4 µM (≈ 1.95 µg/mL)
MIC (Madurella mycetomatis [11]): 4 µM (≈ 1.95 µg/mL)
MIC (Madurella mycetomatis [12]): 4 µM (≈ 1.95 µg/mL)

CN1CCN(c2cc(-c3cnc(N4CCN(C)CC4)nc3)c3nc(-c4ccc(F)cc4)cn3n2)CC1
IC50 at 5 days [2]: 12.3 µM
MIC (Madurella mycetomatis [3]): 4 µM (≈ 1.95 µg/mL)
MIC (Madurella mycetomatis [4]): 4 µM (≈ 1.95 µg/mL)
MIC (Madurella mycetomatis [5]): 4 µM (≈ 1.95 µg/mL)
MIC (Madurella mycetomatis [6]): 8 µM (≈ 3.9 µg/mL)
IC50 (Madurella mycetomatis [1]; Madurella mycetomatis, MM55): 2.9 µM
MIC (Madurella mycetomatis [1]; Madurella mycetomatis, MM55): 8 µM (≈ 3.9 µg/mL)
MIC (Madurella mycetomatis [7]): 4 µM (≈ 1.95 µg/mL)
MIC (Madurella mycetomatis [8]): 4 µM (≈ 1.95 µg/mL)
selectivity ratio [9]: 6.8
MIC (Madurella mycetomatis [10]): 4 µM (≈ 1.95 µg/mL)
MIC (Madurella mycetomatis [11]): 4 µM (≈ 1.95 µg/mL)
MIC (Madurella mycetomatis [12]): 8 µM (≈ 3.9 µg/mL)

CN1CCN(c2cc(-c3cnn(C)c3)c3nc(-c4ccc(F)cc4)cn3n2)CC1 [listing 2 of 2 here]
IC50 at 5 days [2]: 9 µM
MIC (Madurella mycetomatis [3]): 16 µM (≈ 6.26 µg/mL)
MIC (Madurella mycetomatis [4]): 16 µM (≈ 6.26 µg/mL)
MIC (Madurella mycetomatis [5]): > 16 µM
MIC (Madurella mycetomatis [6]): > 16 µM
IC50 (Madurella mycetomatis [1]): 3.8 µM
MIC (Madurella mycetomatis [1]; Madurella mycetomatis, MM55): > 16 µM
MIC (Madurella mycetomatis [7]): > 16 µM
MIC (Madurella mycetomatis [8]): > 16 µM
selectivity ratio [9]: 3.1
MIC (Madurella mycetomatis [10]): > 16 µM
MIC (Madurella mycetomatis [11]): 16 µM (≈ 6.26 µg/mL)
MIC (Madurella mycetomatis [12]): > 16 µM

OCCN1CCN(c2cc(-c3cccc4[nH]ccc34)c3nc(-c4ccc(F)cc4)cn3n2)CC1
IC50 (Madurella mycetomatis [1]; Madurella mycetomatis, MM55): > 16 µM

CN1CCN(c2cc(-c3cccc4[nH]ccc34)c3nc(-c4ccccc4)cn3n2)CC1 [listing 2 of 2 here]
IC50 (Madurella mycetomatis [1]; Madurella mycetomatis, MM55): 8.3 µM

COc1ccccc1-c1cn2nc(N3CCN(C)CC3)cc(-c3cccc4[nH]ccc34)c2n1
IC50 (Madurella mycetomatis [1]; Madurella mycetomatis, MM55): > 16 µM

CN1CCN(c2cc(-c3ccsc3)c3nc(-c4ccc(F)cc4)cn3n2)CC1 [listing 1 of 2 here]
IC50 (Madurella mycetomatis [1]; Madurella mycetomatis, MM55): 5 µM

CN1CCN(c2cc(-c3ccc(N)nc3)c3nc(-c4ccccc4F)cn3n2)CC1
IC50 (Madurella mycetomatis [1]; Madurella mycetomatis, MM55): 9.8 µM

CN1CCN(c2cc(-c3cccc4[nH]ccc34)c3nc(-c4ccccc4F)cn3n2)CC1
IC50 (Madurella mycetomatis [1]; Madurella mycetomatis, MM55): 9.2 µM

CN1CCN(c2cc(-c3ccsc3)c3nc(-c4ccc(F)cc4)cn3n2)CC1 [listing 2 of 2 here]
IC50 (Madurella mycetomatis [1]): 5.5 µM

OCCN1CCN(c2cc(-c3ccsc3)c3nc(-c4ccc(F)cc4)cn3n2)CC1
IC50 (Madurella mycetomatis [1]; Madurella mycetomatis, MM55): 5.3 µM

CC(C)CCn1cc(-c2cc(N3CCN(C)CC3)nn3cc(-c4ccc(F)cc4)nc23)cn1
IC50 (Madurella mycetomatis [1]; Madurella mycetomatis, MM55): 10.3 µM

CN1CCN(c2cc(-c3cccs3)c3nc(-c4ccc(F)cc4)cn3n2)CC1
IC50 (Madurella mycetomatis [1]; Madurella mycetomatis, MM55): 8.5 µM
